# Assays:
# [1] = system: Sarcoma 180 solid tumor; assay: Anti-tumor activity to sarcoma 180 solid tumor; assay type: in vivo; conditions: Mus musculus, Sarcoma-180, iv, 168 h; dose showing T/C=0.5 (tumor volume, 7 days after implantation); single i.v. injection 24 hours after s.c. implantation; male ddY mice
# Procedure: Anti-tumor activity to sarcoma 180 solid tumor
# 5×10^6 Sarcoma 180 cells were abdominally implanted into a ddY mouse and the cells were collected from the ascites of the mouse 7 days after the implantation. The cells were washed once with a sterilized physiological saline solution and then suspended in a sterilized physiological saline solution to prepare a cell suspension of 5×10^7 cells/ml.
# 0.1 ml of the cell suspension was subcutaneously implanted into the right axillary space of male ddY mice weighing 20±2 g.
# A test compound was dissolved in a physiological saline solution or a polyoxyethylene sorbitan monolaurate-containing physiological saline solution, and 0.1 to 0.2 ml of the solution was intravenously injected to 5 mice as one group 24 hours after the implantation of the tumor cells.
# The anti-tumor activity of the test compound was determined by measuring the major axis (a) and the minor axis (b) of the tumor 7 days after the implantation of tumor cells, and the value of (a×b^2 /2), which corresponds to the volume of the tumor, was calculated. The intended anti-tumor activity is represented by a ratio of T/C, in which C indicates the tumor volume of mice of the control group to which no test compound was administered and T indicates the tumor volume of mice of the test group to which the test compound was administered. T/C at each dose given was plotted on the vertical axis and a dose is shown by a logarithmic scale on the horizontal axis. The relationship between the dose and T/C was determined to be a straight line by the least squares method. From the regression formula of the straight line thus obtained, the dose showing T/C=0.5 was calculated to give ED50.
# [2] = Acute toxicity; conditions: mouse, in vivo, iv; i.v. once, ddY mice, observed 14 days; Behrens-Kaerber's method
# Procedure: A test compound was intravenously injected once to five ddY mice as one group. […] LD50 was calculated from the death rate of each group to which the test compound was administered according to the Behrens-Kaerber's method.
# [3] = system: HeLaS3 cells; assay: Growth inhibition test on HeLaS3 cells; assay type: cell-based; conditions: Homo sapiens, HeLa S3, 1 h exposure, then 72 h incubation at 37° C., Neutral Red
# Procedure: Growth inhibition test on HeLaS3 cells
# HeLaS3 cells were suspended in an MEM medium containing 10% fetal calf serum and 2 mM glutamine at a density of 3×10^4 cells/ml, and 0.1 ml of the cell suspension was put into each well of a 96-well microtiter plate.
# After culturing at 37° C. overnight in a carbon dioxide gas incubator, 0.05 ml each of a test compound appropriately diluted with the medium was added to each well. The cells were further cultured for an hour in the carbon dioxide gas incubator, and the culture supernatant was removed. The residue was washed once with a phosphate buffered saline [PBS (-)] and 0.1 ml each of a fresh medium was added to each well. The cells were further incubated at 37° C. for 72 hours in the carbon dioxide gas incubator. After removal of the culture supernatant, 0.1 ml each of the culture medium containing 0.02% Neutral Red was added to each well, and the cells were further incubated at 37° C. for an hour in the carbon dioxide gas incubator to stain the cells.
# After removal of the culture supernatant, each well was washed once with a physiological saline, and the dye was extracted with 0.001N HCl/30% ethanol. Absorbance of the extract at 550 nm was measured with a microplate reader. The cell growth inhibition percentage was calculated according to the following equation from the absorbance of the extract of the cells treated with the test compound in various concentrations and that of the untreated cells. [formula]
# From the cell growth inhibition percentage thus obtained, the concentration of the test compound which inhibits cell growth by 50%, i.e. IC50 value, was determined.
SMILES,ED50 [1] [mg/kg],LD50 at 336 h [2] [mg/kg],IC50 [3] [mM]
"CO[C@@]12[C@H](COC(N)=O)C3=C(C(=O)C4=C(OC5=C(C4)C(=O)CC(C)C5)C3=O)N1C[C@@H]1N[C@@H]12 (single isomer, unassigned) [Compound 36]",1.3,4.4,
"COc1ccc(C2CC(=O)C3=C(C2)OC2=C(C3)C(=O)C3=C(C2=O)[C@@H](COC(N)=O)[C@@]2(OC)[C@H]4N[C@H]4CN32)cc1 (single isomer, unassigned) [Compound 38]",12,,
"CCC1=C(N)C(=O)C2=C(C1=O)N1C[C@@H]3N[C@@H]3[C@]1(OC)[C@@H]2COC(N)=O [Compound 1, 6-demethyl-6-ethylmitomycin C]",6.7,38,3
"CO[C@@]12[C@H](COC(N)=O)C3=C(C(=O)C(Cc4ccccc4)=C(N)C3=O)N1C[C@@H]1N[C@@H]12 [Compound 7, 6-benzyl-6-demethylmitomycin C]",18,> 50,2.3
CO[C@@]12[C@H](COC(N)=O)C3=C(C(=O)C(CC4=C(O)CC(C)(C)CC4=O)=C(N)C3=O)N1C[C@@H]1N[C@@H]12 [Compound 9],8,30,1.5
CCOC(=O)C(C)(CC1=C(OC)C(=O)C2=C(C1=O)N1C[C@@H]3N[C@@H]3[C@]1(OC)[C@@H]2COC(N)=O)C(C)=O (stereo partly drawn) [Compound 10],,,1.6
CCOC(=O)C1=C(C)OC2=C(C1)C(=O)C1=C(C2=O)[C@@H](COC(N)=O)[C@@]2(OC)[C@H]3N[C@H]3CN12 [Compound 12],0.7,5.2,
CO[C@@]12[C@H](COC(N)=O)C3=C(C(=O)C4=C(OC5=C(C4)C(=O)CC(C)(C)C5)C3=O)N1C[C@@H]1N[C@@H]12 [Compound 13],1.3,2.9,0.084
CO[C@@]12[C@H](COC(N)=O)C3=C(C(=O)C4=C(OC5=C(C4)C(=O)CCC5)C3=O)N1C[C@@H]1N[C@@H]12 [Compound 14],0.84,2.2,0.065
"CCC1=C(OC)C(=O)C2=C(C1=O)N1C[C@@H]3N[C@@H]3[C@]1(OC)[C@@H]2COC(N)=O [Compound 15, 6-demethyl-6-ethylmitomycin A]",2.8,8.2,
"CCC1=C(OC)C(=O)C2=C(C1=O)N1C[C@H]3[C@H](N3C)[C@]1(O)[C@H]2COC(N)=O (stereo partly drawn) [Compound 16, 6-demethyl-6-ethylmitomycin B]",14,25,
CO[C@@]12[C@H](COC(N)=O)C3=C(C(=O)C4=C(OC(C)=C(C(=O)c5ccccc5)C4)C3=O)N1C[C@@H]1N[C@@H]12 [Compound 30],5.8,,
CO[C@@]12[C@H](COC(N)=O)C3=C(C(=O)C4=C(OC5=C(C4)C(=O)CC(C)C5)C3=O)N1C[C@@H]1N[C@@H]12 (stereo partly drawn) [Compound 37],0.93,,
